Experimental data as given in patent US10827969B2, “Breath test device and method” (EXALENZ BIOSCIENCE LTD., priority 2005, dated 2020).

What was measured:
[1] = parameters: species or system subject; conditions: in vivo
From the text: One of the most common methods for determining the rate of metabolism of methacetin is to analyze the rate of metabolism of the methoxy group (CH3O) of methacetin to carbon dioxide, which is excreted in exhaled breath. To distinguish the carbon dioxide derived from methacetin from all other sources of carbon dioxide, the methoxy group is labeled with ^13C, a stable isotope of carbon. Thus, all the CO2 derived from methacetin will contain ^13C (^13CO2) in contrast to all other sources of CO2, which will contain approximately 99%^12C, and 1% ^13C, the naturally abundant isotope. Thus, the rate of excretion of ^13CO2 (normalized to ^12CO2) above background following the administration of methacetin-methoxy-^13C indicates its rate of metabolism, which relates to the hepatic cell “health” and to the functional mass of the liver.
The curve depicts the rate of metabolism of ^13C-Methacetin in % dose/hour as measured in breath. The peak of the curve (marked by the arrow) appears after 0.4 h (hours). The PDR peak height is approximately at 23.5% dose/hour.
The following are two examples that illustrate this phenomenon. […]

[2] = as known in the art; cited from earlier work
[3] = Decomposition of methacetin on heating in solution; type: physicochemical; conditions: heating at 80° C. for three hours
Procedure: There is thus provided, according to some embodiments, a method of controlled dissolution of methacetin. Methacetin seems to be stable after short term warming to <80° C. in solution. […] Therefore, according to an embodiment of the invention, a solution of methacetin may be prepared by dissolution in warm water.

[4] = Two weeks stability of methacetin formulations (HPLC assay, appearance); type: physicochemical; conditions: 37-38 mg/100 mL methanol, room temperature, at least one week
Procedure: In the first three items, formulations containing 75 mg methacetin/200 mL solvent were prepared: 2-1. Formulation-1: 76.04 mg methacetin; 62.94 mg SLS; water to final volume of 200 mL. 2-2. Formulation-2: 75.87 mg methacetin; 4 mL PPG-400; water to final volume of 200 mL. 2-3. Formulation-3: 76.66 mg methacetin; 4 mL tween-80; water to final volume of 200 mL. The first three formulated solutions were stored at room temperature protected from light. The fourth solution was stored in an incubator for 3 months at 40° C. On each testing interval, the formulated samples were analyzed according to the following method: [table] The samples were diluted to a concentration of about 37 ppm (37 mg in 1000 ml) and analyzed against a standard solution at the same concentration. The standard was provided by the sponsor (Adrich 428264 batch: UI 2335). Purity of 100% was used in calculations. The methacetin sample that was used for the formulations was also used as a standard for the HPLC determination. […] The stock solution was diluted ×10 in mobile phase solution before the HPLC analysis. The assay was conducted according to Analyst SOP No. 05-001-03, and the HPLC method that was provided by the sponsor.

[5] = Conditions for dissolving methacetin: dissolving time; type: physicochemical; conditions: room temperature (approximately 25° C.)
Procedure: It was evaluated whether the thermal cycle for dissolving the API (active pharmaceutical ingredient, such as methacetin) can be eliminated from or at least lowered in the process. Cold vortexing, as well as the assistance of excipients acceptable by the international pharmaceutical regulations and capable of assisting in improving the dissolution of the API, were utilized.
Experimentation trials were performed, in order to eliminate the heating stage while dissolving the API (methacetin) in purified water.
Therefore, alternative directions for improving the API dissolution were tried. Solvents capable of dissolving the API and approvable for utilization in pharmaceutical preparations were utilized for this task.
30% by volume of the purified water of the preparation was replaced by the alternative solvent. The dissolving time of each preparation was recorded.
Therefore, a gradient of temperature was utilized to completely dissolve the methacetin in the preparation. An in-process control testing was applied at this stage. A UV specific absorbance analytical method, without further manipulation of the sample, was utilized for confirming that the solid has been completely dissolved in the preparation.

PDR peak height [1] [% dose/hour] | time of appearance of the PDR peak [1] [h] | methacetin decomposed [3] [%] | stability of methacetin stock solution [4] | dissolution in water [5] | SMILES | hepatic extraction ratio [2]
~23.5 | 0.4 | – | – | – | CC(=O)Nc1ccc(O[13CH3])cc1 [^13C-Methacetin, methacetin-methoxy-^13C] | –
– | – | 0.018 | stable | does not dissolve well | COc1ccc(NC(C)=O)cc1 [methacetin, N-(4-Methoxyphenyl)acetamide] | more than 0.8
